“And” between values parts separate entries of the source, which are not always exact repeats. Equal entries are not always repeated.
Tests used:
S. furcifera adults = experiment: Y-tube olfactometer behavioral trials; assay type: in vivo, Sogatella furcifera; conditions: odorant 50 µL/L vs hexane; adults
Outline: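 Single S. furcifera adults (2 days post-emergence, starved 0.5 h) chose between odorant (100 µL of 50 µL/L on filter paper) and hexane control in a glass Y-tube, charcoal-filtered humidified air 300 mL/min per arm, 25 ± 1 °C, 50% RH. Choice scored if insect passed half an arm and stayed >1 min within 10 min; 45 insects per compound, chi-squared test.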

SfurOBP11 = SfurOBP11 (Sogatella furcifera, UniProt V5T6E3); experiment: biochemical; assay type: binding
Outline: (§1)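 1-NPN displacement assay with odorant competitor at 2–20 µM; protein and probe both 2.0 µM at pH 7.4. Ki is calculated from IC50 using the protein/1-NPN dissociation constant.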

SfurOBP3 = SfurOBP3 (Sogatella furcifera, UniProt V5T818); experiment: biochemical; assay type: binding; conditions: for Fluorescence competitive binding assay, fluorescence intensity: OBP3, three replicate columns
Outline: as §1

SfurOBP2 = SfurOBP2 (Sogatella furcifera, UniProt V5T759); experiment: biochemical; assay type: binding
Outline: as §1

SfurOBP1 = SfurOBP1 (Sogatella furcifera, UniProt V5T8N5); experiment: biochemical; assay type: binding; conditions: for Fluorescence competitive binding assay, fluorescence intensity: OBP1, three replicate columns
Outline: as §1

SfurOBP1, sequence (V5T8N5 entry or part of it): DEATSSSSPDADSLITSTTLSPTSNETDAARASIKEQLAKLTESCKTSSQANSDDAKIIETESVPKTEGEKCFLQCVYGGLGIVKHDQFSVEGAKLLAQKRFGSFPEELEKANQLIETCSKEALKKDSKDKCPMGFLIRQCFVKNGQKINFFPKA
SfurOBP3, sequence (V5T818 entry or part of it): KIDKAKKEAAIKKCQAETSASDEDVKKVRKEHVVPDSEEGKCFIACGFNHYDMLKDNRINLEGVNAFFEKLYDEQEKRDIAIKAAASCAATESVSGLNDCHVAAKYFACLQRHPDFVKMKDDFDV
SfurOBP2, sequence (V5T759 entry or part of it): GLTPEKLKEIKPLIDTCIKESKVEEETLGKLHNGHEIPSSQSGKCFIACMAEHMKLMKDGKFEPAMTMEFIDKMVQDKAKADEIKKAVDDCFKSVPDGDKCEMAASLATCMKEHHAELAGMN
SfurOBP11, sequence (V5T6E3 entry or part of it): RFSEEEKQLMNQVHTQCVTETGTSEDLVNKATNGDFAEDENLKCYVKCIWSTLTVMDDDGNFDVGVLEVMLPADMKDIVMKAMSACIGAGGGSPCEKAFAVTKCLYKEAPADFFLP

## CCCCCCCCC=O [nonanal]
S. furcifera adults
  number of insects choosing hexane arm: 12
  number of insects choosing volatilies arm: 17
  number of insects failed (no choice): 11
SfurOBP11; SfurOBP11, protein and 1-NPN both 2.0 µM, competitor 2-20 µM, read-out: IC50
  IC50: > 20 µM
SfurOBP11; ligand concentration 2, replicate 1
  Fluorescence intensity, fluorescence competitive binding assay, OBP11: 31191
SfurOBP11; ligand concentration 2, replicate 2
  Fluorescence intensity, fluorescence competitive binding assay, OBP11: 27026
SfurOBP11; ligand concentration 2, replicate 3
  Fluorescence intensity, fluorescence competitive binding assay, OBP11: 27251
SfurOBP11; ligand concentration 4, replicate 1
  Fluorescence intensity, fluorescence competitive binding assay, OBP11: 33062
SfurOBP11; ligand concentration 4, replicate 2
  Fluorescence intensity, fluorescence competitive binding assay, OBP11: 32235
SfurOBP11; ligand concentration 4, replicate 3
  Fluorescence intensity, fluorescence competitive binding assay, OBP11: 30749
SfurOBP11; ligand concentration 6, replicate 1
  Fluorescence intensity, fluorescence competitive binding assay, OBP11: 33680
SfurOBP11; ligand concentration 6, replicate 2
  Fluorescence intensity, fluorescence competitive binding assay, OBP11: 31560
SfurOBP11; ligand concentration 6, replicate 3
  Fluorescence intensity, fluorescence competitive binding assay, OBP11: 31826
SfurOBP11; ligand concentration 8, replicate 1
  Fluorescence intensity, fluorescence competitive binding assay, OBP11: 29344
SfurOBP11; ligand concentration 8, replicate 2
  Fluorescence intensity, fluorescence competitive binding assay, OBP11: 31482
SfurOBP11; ligand concentration 8, replicate 3
  Fluorescence intensity, fluorescence competitive binding assay, OBP11: 30513
SfurOBP11; ligand concentration 10, replicate 1
  Fluorescence intensity, fluorescence competitive binding assay, OBP11: 29393
SfurOBP11; ligand concentration 10, replicate 2
  Fluorescence intensity, fluorescence competitive binding assay, OBP11: 28581
SfurOBP11; ligand concentration 10, replicate 3
  Fluorescence intensity, fluorescence competitive binding assay, OBP11: 27079
SfurOBP11; ligand concentration 12, replicate 1
  Fluorescence intensity, fluorescence competitive binding assay, OBP11: 26945
SfurOBP11; ligand concentration 12, replicate 2
  Fluorescence intensity, fluorescence competitive binding assay, OBP11: 26618
SfurOBP11; ligand concentration 12, replicate 3
  Fluorescence intensity, fluorescence competitive binding assay, OBP11: 27193
SfurOBP11; ligand concentration 14, replicate 1
  Fluorescence intensity, fluorescence competitive binding assay, OBP11: 24856
SfurOBP11; ligand concentration 14, replicate 2
  Fluorescence intensity, fluorescence competitive binding assay, OBP11: 26161
SfurOBP11; ligand concentration 14, replicate 3
  Fluorescence intensity, fluorescence competitive binding assay, OBP11: 27383
SfurOBP11; ligand concentration 16, replicate 1
  Fluorescence intensity, fluorescence competitive binding assay, OBP11: 23278
SfurOBP11; ligand concentration 16, replicate 2
  Fluorescence intensity, fluorescence competitive binding assay, OBP11: 23147
SfurOBP11; ligand concentration 16, replicate 3
  Fluorescence intensity, fluorescence competitive binding assay, OBP11: 23455
SfurOBP11; ligand concentration 18, replicate 1
  Fluorescence intensity, fluorescence competitive binding assay, OBP11: 27255
SfurOBP11; ligand concentration 18, replicate 2
  Fluorescence intensity, fluorescence competitive binding assay, OBP11: 25416
SfurOBP11; ligand concentration 18, replicate 3
  Fluorescence intensity, fluorescence competitive binding assay, OBP11: 25774
SfurOBP11; ligand concentration 20, replicate 1
  Fluorescence intensity, fluorescence competitive binding assay, OBP11: 25007
SfurOBP11; ligand concentration 20, replicate 2
  Fluorescence intensity, fluorescence competitive binding assay, OBP11: 22862
SfurOBP11; ligand concentration 20, replicate 3
  Fluorescence intensity, fluorescence competitive binding assay, OBP11: 22028
SfurOBP3; ligand concentration 2
  Fluorescence competitive binding assay, fluorescence intensity: 61166 and 61638 and 64447
SfurOBP3; ligand concentration 4
  Fluorescence competitive binding assay, fluorescence intensity: 63416 and 64552 and 59405
SfurOBP3; ligand concentration 6
  Fluorescence competitive binding assay, fluorescence intensity: 55740 and 58561 and 59455
SfurOBP3; ligand concentration 8
  Fluorescence competitive binding assay, fluorescence intensity: 58358 and 53959 and 58376
SfurOBP3; ligand concentration 10
  Fluorescence competitive binding assay, fluorescence intensity: 51490 and 57535 and 53641
SfurOBP3; ligand concentration 12
  Fluorescence competitive binding assay, fluorescence intensity: 51816 and 53317 and 52476
SfurOBP3; ligand concentration 14
  Fluorescence competitive binding assay, fluorescence intensity: 50240 and 49815 and 48142
SfurOBP3; ligand concentration 16
  Fluorescence competitive binding assay, fluorescence intensity: 46199 and 48600 and 42686
SfurOBP3; ligand concentration 18
  Fluorescence competitive binding assay, fluorescence intensity: 47759 and 45050 and 48665
SfurOBP3; ligand concentration 20
  Fluorescence competitive binding assay, fluorescence intensity: 47298 and 41425 and 41649
SfurOBP3; SfurOBP3, protein and 1-NPN both 2.0 µM, competitor 2-20 µM, read-out: IC50
  IC50: > 20 µM
SfurOBP2; SfurOBP2, protein and 1-NPN both 2.0 µM, competitor 2-20 µM, read-out: IC50
  IC50: > 20 µM
SfurOBP2; ligand concentration 2 (unit not given), replicate column 1 of 3
  Fluorescence competitive binding assay, OBP2 (raw fluorescence reading): 22495
SfurOBP2; ligand concentration 2 (unit not given), replicate column 2 of 3
  Fluorescence competitive binding assay, OBP2 (raw fluorescence reading): 22840
SfurOBP2; ligand concentration 2 (unit not given), replicate column 3 of 3
  Fluorescence competitive binding assay, OBP2 (raw fluorescence reading): 21233
SfurOBP2; ligand concentration 4 (unit not given), replicate column 1 of 3
  Fluorescence competitive binding assay, OBP2 (raw fluorescence reading): 23391
SfurOBP2; ligand concentration 4 (unit not given), replicate column 2 of 3
  Fluorescence competitive binding assay, OBP2 (raw fluorescence reading): 22604
SfurOBP2; ligand concentration 4 (unit not given), replicate column 3 of 3
  Fluorescence competitive binding assay, OBP2 (raw fluorescence reading): 23347
SfurOBP2; ligand concentration 6 (unit not given), replicate column 1 of 3
  Fluorescence competitive binding assay, OBP2 (raw fluorescence reading): 22973
SfurOBP2; ligand concentration 6 (unit not given), replicate column 2 of 3
  Fluorescence competitive binding assay, OBP2 (raw fluorescence reading): 22972
SfurOBP2; ligand concentration 6 (unit not given), replicate column 3 of 3
  Fluorescence competitive binding assay, OBP2 (raw fluorescence reading): 22119
SfurOBP2; ligand concentration 8 (unit not given), replicate column 1 of 3
  Fluorescence competitive binding assay, OBP2 (raw fluorescence reading): 20829
SfurOBP2; ligand concentration 8 (unit not given), replicate column 2 of 3
  Fluorescence competitive binding assay, OBP2 (raw fluorescence reading): 21110
SfurOBP2; ligand concentration 8 (unit not given), replicate column 3 of 3
  Fluorescence competitive binding assay, OBP2 (raw fluorescence reading): 19166
SfurOBP2; ligand concentration 10 (unit not given), replicate column 1 of 3
  Fluorescence competitive binding assay, OBP2 (raw fluorescence reading): 18739
SfurOBP2; ligand concentration 10 (unit not given), replicate column 2 of 3
  Fluorescence competitive binding assay, OBP2 (raw fluorescence reading): 19572
SfurOBP2; ligand concentration 10 (unit not given), replicate column 3 of 3
  Fluorescence competitive binding assay, OBP2 (raw fluorescence reading): 20059
SfurOBP2; ligand concentration 12 (unit not given), replicate column 1 of 3
  Fluorescence competitive binding assay, OBP2 (raw fluorescence reading): 18220
SfurOBP2; ligand concentration 12 (unit not given), replicate column 2 of 3
  Fluorescence competitive binding assay, OBP2 (raw fluorescence reading): 17338
SfurOBP2; ligand concentration 12 (unit not given), replicate column 3 of 3
  Fluorescence competitive binding assay, OBP2 (raw fluorescence reading): 19313
SfurOBP2; ligand concentration 14 (unit not given), replicate column 1 of 3
  Fluorescence competitive binding assay, OBP2 (raw fluorescence reading): 18807
SfurOBP2; ligand concentration 14 (unit not given), replicate column 2 of 3
  Fluorescence competitive binding assay, OBP2 (raw fluorescence reading): 18093
SfurOBP2; ligand concentration 14 (unit not given), replicate column 3 of 3
  Fluorescence competitive binding assay, OBP2 (raw fluorescence reading): 18015
SfurOBP2; ligand concentration 16 (unit not given), replicate column 1 of 3
  Fluorescence competitive binding assay, OBP2 (raw fluorescence reading): 15898
SfurOBP2; ligand concentration 16 (unit not given), replicate column 2 of 3
  Fluorescence competitive binding assay, OBP2 (raw fluorescence reading): 17144
SfurOBP2; ligand concentration 16 (unit not given), replicate column 3 of 3
  Fluorescence competitive binding assay, OBP2 (raw fluorescence reading): 15877
SfurOBP2; ligand concentration 18 (unit not given), replicate column 1 of 3
  Fluorescence competitive binding assay, OBP2 (raw fluorescence reading): 16375
SfurOBP2; ligand concentration 18 (unit not given), replicate column 2 of 3
  Fluorescence competitive binding assay, OBP2 (raw fluorescence reading): 13674
SfurOBP2; ligand concentration 18 (unit not given), replicate column 3 of 3
  Fluorescence competitive binding assay, OBP2 (raw fluorescence reading): 18894
SfurOBP2; ligand concentration 20 (unit not given), replicate column 1 of 3
  Fluorescence competitive binding assay, OBP2 (raw fluorescence reading): 16296
SfurOBP2; ligand concentration 20 (unit not given), replicate column 2 of 3
  Fluorescence competitive binding assay, OBP2 (raw fluorescence reading): 16765
SfurOBP2; ligand concentration 20 (unit not given), replicate column 3 of 3
  Fluorescence competitive binding assay, OBP2 (raw fluorescence reading): 17962
SfurOBP1; ligand concentration 2 (μM)
  Fluorescence competitive binding assay, fluorescence intensity: 7802 and 7217 and 8367
SfurOBP1; ligand concentration 4 (μM)
  Fluorescence competitive binding assay, fluorescence intensity: 10256 and 8383 and 7448
SfurOBP1; ligand concentration 6 (μM)
  Fluorescence competitive binding assay, fluorescence intensity: 7755 and 7709 and 7657
SfurOBP1; ligand concentration 8 (μM)
  Fluorescence competitive binding assay, fluorescence intensity: 8353 and 6725 and 6896
SfurOBP1; ligand concentration 10 (μM)
  Fluorescence competitive binding assay, fluorescence intensity: 7309 and 7612 and 6541
SfurOBP1; ligand concentration 12 (μM)
  Fluorescence competitive binding assay, fluorescence intensity: 7182 and 6932 and 8389
SfurOBP1; ligand concentration 14 (μM)
  Fluorescence competitive binding assay, fluorescence intensity: 7695 and 6348 and 8106
SfurOBP1; ligand concentration 16 (μM)
  Fluorescence competitive binding assay, fluorescence intensity: 7645 and 7087 and 7719
SfurOBP1; ligand concentration 18 (μM)
  Fluorescence competitive binding assay, fluorescence intensity: 9286 and 8583 and 8604
SfurOBP1; ligand concentration 20 (μM)
  Fluorescence competitive binding assay, fluorescence intensity: 13401 and 7898 and 7495
SfurOBP1; SfurOBP1, protein and 1-NPN both 2.0 µM, competitor 2-20 µM, read-out: IC50
  IC50: > 20 µM

— article PMC6409085, “Three odorant-binding proteins are involved in the behavioral response of Sogatella furcifera to rice plant volatiles” (PeerJ, 2019)
